Reference: patent US20250057819A1, “DRUG COMBINATIONS FOR INHIBITING CORONAVIRUS REPLICATION” (priority 2021, published 2025)
Where a name gives a salt, the structure may show the parent alone. Read-outs that look alike come from different tables or passages of the source.

Assays:
Huh7.5 cells = assay: Cell viability assay (MTT) in Huh7.5 cells; assay type: cell-based, human; conditions: Huh7.5 (B), read-out: SARS-CoV-2 CC50
Experimental: (§1) Cell viability was monitored by a mitochondrial activity test using methyl-thiazolyl-tetrazolium (MTT, Sigma). After 48 hours of drug treatment, cells were treated with 1 mg/ml of MTT during 3 hours at 37° C. The supernatants were removed and the MTT crystals were dissolved using DMSO and a shaker. The absorbance was read with a Tecan Spark at 570 nm with reference at 650 nm.
(§2) Only the most promising molecules or those studied in synergy were tested in Calu3 cells.

rHCoVs-OC43 = assay: organism not typed; assay type: cell-based; conditions: for IC50: drug 2 alone (fast synergy screening table), read-out: IC50; for EC50: drug alone, HRT-18 cells, MOI 0.025, 48 h treatment, decrease of Rluc, read-out: EC50
SARS-CoV-2 [1] = assay: microbe, parasite or virus in culture; assay type: cell-based; conditions: read-out: SARS-CoV-2 EC50
HRT-18 cells = assay: Cell viability assay (MTT) in HRT-18 cells
SARS-CoV-2 [2] = assay: Drug tests in SARS-CoV-2 model, Calu3 cells, viral titration by plaque assay in Vero E6; conditions: read-out: SARS-CoV-2 EC50; Calu3 (C), MOI 0.05, 48 h treatment
[3] = Cell viability assay (MTT) in Calu3 cells; assay type: cell-based, Human; conditions: human, Calu3 cells, Calu3 (C), read-out: SARS-CoV-2 CC50
Experimental: as §1, §2

[4] = Cell viability assay (MTT) in Huh7.5 cells; assay type: cell-based, human; conditions: human, Huh7.5 cells, Huh7.5 (B), read-out: SARS-CoV-2 CC50
Experimental: as §1, §2

[5] = Cell viability assay (MTT) in HRT-18 cells; conditions: human, CC50 (μM)
Calu3 cells = assay: Cell viability assay (MTT) in Calu3 cells; assay type: cell-based, Human; conditions: Calu3 (C), read-out: SARS-CoV-2 CC50
Experimental: as §1, §2

SARS-CoV-2 [6] = conditions: reports from in vitro studies (ref. 16); cited from earlier work
Covid-19 = conditions: adults hospitalized with Covid-19 (ref. 17); cited from earlier work
[7] = drug 2 alone (fast synergy screening table)
[8] = drug alone, HRT-18 cells, 48 h treatment, MTT
[9] = Severe acute respiratory syndrome coronavirus 2, Huh7.5, 48 h

Row | SMILES | CC50 (Huh7.5 cells) | IC50 (rHCoVs-OC43) | EC50 (rHCoVs-OC43) | EC50 (SARS-CoV-2 [1]) | EC50 (SARS-CoV-2 [2]) | CC50 at 48 h [3] | CC50 at 48 h [4] | EC50 (SARS-CoV-2 [1]; [9]) | CC50 at 48 h [5, 8] | further results
1 | COc1c(C)c2c(c(O)c1C/C=C(\C)CCC(=O)OCCN1CCOCC1)C(=O)OC2 [Mycophenolate mofetil] | 9.1 µM | 0.18 µM | 0.18 µM | 1.18 µM | – | – | – | – | – | CC50 (HRT-18 cells; [7]): > 10 µM; CC50 (HRT-18 cells; [8]): > 10 µM
2 | CCC(CC)COC(=O)[C@H](C)N[P@](=O)(OC[C@H]1O[C@@](C#N)(c2ccc3c(N)ncnn23)[C@H](O)[C@@H]1O)Oc1ccccc1 [Remdesivir] | – | 0.034 µM | 0.034 µM | – | 0.004 µM | > 10 µM | > 10 µM | ≤ 0.001 µM | 2.5 µM | IC50 (rHCoVs-OC43; 48 h): 0.034 µM; CC50 at 48 h [5, 7]: 2.5 µM
3 | CC(C)C(=O)OC[C@H]1O[C@@H](n2cc/c(=N\O)[nH]c2=O)[C@H](O)[C@@H]1O [Molnupinavir] | > 10 µM | – | – | 0.084 µM | 0.035 µM | – | – | – | – | CC50 (Calu3 cells): > 10 µM
4 | Cc1cccc(C)c1OCC(=O)N[C@@H](Cc1ccccc1)[C@@H](O)C[C@H](Cc1ccccc1)NC(=O)[C@H](C(C)C)N1CCCNC1=O [Lopinavir] | – | – | – | – | – | – | – | – | – | EC50 (SARS-CoV-2 [6]): 26 µM; clinical benefit (Covid-19): no benefit was observed
5 | CCN(CC)CCOc1ccc2c(c1)C(=O)c1cc(OCCN(CC)CC)ccc1-2 [Tilorone dihydrochloride] | – | – | 0.014 µM | – | 0.07 µM | > 10 µM | > 10 µM | 0.5 µM | > 10 µM | –
